In publication PMC10791743, “Selective CK1α degraders exert antiproliferative activity against a broad range of human cancer cell lines” (Nature Communications, 2024):
Where “and” joins values, the source holds several entries; their conditions need not be identical. Equal entries are not always repeated.

Tests used:
CRBN−/− MOLM-13 cells = experiment: Wild type versus CRBN−/− MOLM-13 cells (viability, CRBN dependence); type: cell-based, human; set-up: key to cell viability, dose-response replicate values: % viability = 100 − % activity (RLU normalized to negative control); settings: for cell viability, dose-response replicate values: MOLM-13 CRBN KO
Description: Having identified SJ7095 as a compound with a potent antiproliferative effect in MOLM-13 cells, we next examined whether the observed effect was CRBN-dependent. […] In an orthogonal approach, we tested SJ7095 in wild-type and CRBN-knockout MOLM-13 cells in a cell viability assay (Supplementary Fig. 1b).
CRBN^−/− MOLM-13 cells were created using CRISPR-Cas9 technology. Briefly, 1 million MOLM-13 cells were transiently transfected with precomplexed ribonuclear proteins (RNPs) consisting of 400 pmol of chemically modified sgRNA (Synthego), 135pmol of SpCas9 protein (St. Jude Protein Production Core), and 500 ng of pMaxGFP (Lonza) via nucleofection (Lonza, 4D-Nucleofector™ X-unit) using solution SF and program EO100 in a 100 µl cuvette according to the manufacturer’s recommended protocol. Transfected cells (GFP+) were single-cell sorted by flow cytometry (St. Jude Flow Cytometry and Cell Sorting Shared Resource) into 96-well tissue culture-treated plates 5 days post nucleofection. Cells were clonally expanded and screened for the desired targeted modification (out-of-frame indels) via targeted deep sequencing using gene-specific primers with partial Illumina adapter overhangs as previously described. Genotyping of clones was performed using CRIS.py[59]. Knockout clones were identified as clones containing only out-of-frame indels. PowerPlex® Fusion System (Promega) was used to confirm final clone identification (Hartwell Center for Biotechnology at St. Jude). All clones tested negative for mycoplasma by the MycoAlert^TMPlus Mycoplasma Detection Kit (Lonza). CRBN knockout confirmed by immunoblot (Supplementary Material).
MOLM-13 cells were plated in Corning 8804BC white 384-well assay plates at the appropriate cell number per well and incubated overnight at 37 °C in a humidified 5 % CO2 incubator. Compounds were transferred to the assay plate from a dose-response plate using a Labcyte Echo 650 Acoustic Liquid Handler (Beckman Coulter , USA). Cytotoxicity was determined following 72 h of incubation using Promega’s CellTiter-Glo reagent according to the manufacturer’s recommendation.
Luminescence was measured on the Envision plate reader (PerkinElmer, USA). Raw luminescence relative light unit (RLU) values for each compound at each concentration were normalized to obtain % activity using the following equation (1): 100 × [(mean(negctrl) – compound)/(mean (negctrl) – mean (posctrl))]. The % activity was converted to % viability using the following equation (2):
(100 – % activity), and then pooled from replicate experiments prior to fitting. Here, negctrl and posctrl refer to the negative (DMSO) and positive controls (staurosporine) on each plate. Dose-response curves were fit to the Hill equation using the GraphPad Prism (version 10). […]

MOLM-13 cells = experiment: TMT quantitative proteomics in MOLM-13; type: cell-based, human; settings: for Proteins with significantly reduced abundance (TMT proteomics): 1 μM, 4 h
Description: We next carried out a tandem mass tag (TMT) quantitative proteomics experiment[30] to identify the neosubstrates whose degradation is induced by SJ7095. […] We confirmed the proteomics results by immunoblot analysis of CK1α in MOLM-13 cells following treatment with increasing concentrations of SJ7095 over 4 h (Fig. 2b). Under these conditions compound SJ7095 induced dose-dependent reduction of CK1α protein levels with DC50 value of 15 nM.
Each compound was tested in three wells of 2 million MOLM-13 cells each. […] Cells were then collected and washed with DPBS. Washed cells were centrifuged at 400×g for 5 min at 4 °C, the supernatant was removed, and pellets were snap frozen in liquid nitrogen and stored at −80 °C until sample submission.
The experiment was performed with a previously optimized protocol[30] with slight modification. Cell pellets were lysed in lysis buffer (50 mM HEPES, pH 8.5, 8 M urea, and 0.5% sodium deoxycholate). To profile the whole proteome, the protein lysates (approximately 100 µg of protein per sample) were proteolyzed with LysC (Wako) at an enzyme-to-substrate ratio of 1:100 (w/w) for 2 h at 21 °C. Following this the samples were diluted to a final 2 M Urea concentration, and further digested with trypsin (Promega) at an enzyme-to-substrate ratio of 1:50 (w/w) for at least 3 h. The peptides were reduced by adding 1 mM DTT for 30 min at 21 °C followed by alkylation with 10 mM iodoacetamide (IAA) for 30 min in the dark. The unreacted IAA was quenched with 30 mM DTT for 30 min. Finally, the digestion was stopped by adding trifluoroacetic acid (TFA) to 1%, desalted using C18 cartridges (Harvard Apparatus), and dried by speedvac. The purified peptides were resuspended in 50 mM HEPES (pH 8.5), and labeled with TMT reagents (Thermo Scientific). The differentially labeled samples were pooled equally, desalted, and dried for the subsequent peptide fractionation. Peptide analysis by two-dimensional liquid chromatography–tandem mass spectrometry (LC/LC–MS/MS) and MS data analysis are described in Supplementary Material. […]
Identification/quantification of proteins
The MS/MS raw data were processed by a tag-based hybrid search engine, JUMP7. The data was […]
concatenated with a reversed decoy database for evaluating False Discovery Rate (FDR). Searches were performed using a 15 ppm mass tolerance for precursor ions, fully tryptic restriction with two maximal missed cleavages, three maximal modification sites, and the assignment of b, and y ions.
TMT tags on lysine residues and N-termini (+304.2071453 Da for TMT16 and TMT18) were used for static modifications. In addition, oxidation of Methionine (Met) was considered as a dynamic modification (+15.99492 Da). Putative peptide spectral matches (PSMs) were filtered by mass accuracy and then grouped by precursor ion charge state and further filtered by JUMP-based matching scores, Jscore and ΔJn, to achieve the protein FDR below 1%. For quantification, TMT intensities of reporter ions were extracted, filtered, normalized, and summarized into peptide and […]
Differential expression analysis of proteins
Identification of differentially expressed proteins were conducted by the limma R package8. To control multiple testing, the Benjamini-Hochberg method was employed. Proteins with an adjusted […]
p value of < 0.05 and log2 fold change of > 2-fold of standard deviation (SD) were defined as differentially expressed. […]

Structure (SMILES): Cc1cccc(C(=O)Nc2ccc3c(c2)CN(C2CCC(=O)NC2=O)C3=O)c1 (centres unmarked) [SJ0040]
- viability at 0.00126002 µM (CRBN−/− MOLM-13 cells; Homo sapiens, MOLM-13, MOLM-13 CRBN KO, Conc 0.00126002 uM, read-out: cell viability, dose-response replicate values): 97.2%
- viability at 0.0113402 µM (CRBN−/− MOLM-13 cells; Homo sapiens, MOLM-13, MOLM-13 CRBN KO, Conc 0.0113402 uM, read-out: cell viability, dose-response replicate values): 96.7%
- viability at 0.0340206 µM (CRBN−/− MOLM-13 cells; Homo sapiens, MOLM-13, MOLM-13 CRBN KO, Conc 0.0340206 uM, read-out: cell viability, dose-response replicate values): 93.1%
- viability at 0.102062 µM (CRBN−/− MOLM-13 cells; Homo sapiens, MOLM-13, MOLM-13 CRBN KO, Conc 0.102062 uM, read-out: cell viability, dose-response replicate values): 89.2%
- viability at 0.306185 µM (CRBN−/− MOLM-13 cells; Homo sapiens, MOLM-13, MOLM-13 CRBN KO, Conc 0.306185 uM, read-out: cell viability, dose-response replicate values): 88.4%
- viability at 0.918556 µM (CRBN−/− MOLM-13 cells; Homo sapiens, MOLM-13, MOLM-13 CRBN KO, Conc 0.918556 uM, read-out: cell viability, dose-response replicate values): 97.5%
- viability at 2.75567 µM (CRBN−/− MOLM-13 cells; Homo sapiens, MOLM-13, MOLM-13 CRBN KO, Conc 2.75567 uM, read-out: cell viability, dose-response replicate values): 84.5%
- viability at 8.267 µM (CRBN−/− MOLM-13 cells; Homo sapiens, MOLM-13, MOLM-13 CRBN KO, Conc 8.267 uM, read-out: cell viability, dose-response replicate values): 48.7%
- cell viability, dose-response replicate values (CRBN−/− MOLM-13 cells; Conc 0.00126002 uM): 101.892 and 99.1853
- cell viability, dose-response replicate values (CRBN−/− MOLM-13 cells; Conc 0.00378006 uM): 77.9399 and 92.8153 and 102.961
- cell viability, dose-response replicate values (CRBN−/− MOLM-13 cells; Conc 0.0113402 uM): 90.8518 and 98.3247
- cell viability, dose-response replicate values (CRBN−/− MOLM-13 cells; Conc 0.0340206 uM): 99.2582 and 100.85
- cell viability, dose-response replicate values (CRBN−/− MOLM-13 cells; Conc 0.102062 uM): 95.1601 and 101.209
- cell viability, dose-response replicate values (CRBN−/− MOLM-13 cells; Conc 0.306185 uM): 92.1664 and 101.967
- cell viability, dose-response replicate values (CRBN−/− MOLM-13 cells; Conc 0.918556 uM): 93.1747 and 96.6395
- cell viability, dose-response replicate values (CRBN−/− MOLM-13 cells; Conc 2.75567 uM): 84.7802 and 96.7661
- cell viability, dose-response replicate values (CRBN−/− MOLM-13 cells; Conc 8.267 uM): 53.0309 and 66.5957
- Proteins with significantly reduced abundance (TMT proteomics) (MOLM-13 cells): significantly reduced the abundance of only CK1α out of >9000 proteins
- Log2FC vs. DMSO, BHLHE40 (MOLM-13 cells; 1uM, 4h): 0.522
- Log2FC vs. DMSO, CSNK1A1 (MOLM-13 cells; 1uM, 4h): -1.896

Structure (SMILES): O=C1CCC(N2Cc3cc(Nc4noc5ccccc45)ccc3C2=O)C(=O)N1 (centres unmarked) [SJ3149]
- viability at 0.000508 µM (CRBN−/− MOLM-13 cells; Homo sapiens, MOLM-13, MOLM-13 CRBN KO, Conc 0.000508 uM, read-out: cell viability, dose-response replicate values): 113%
- viability at 0.00152416 µM (CRBN−/− MOLM-13 cells; Homo sapiens, MOLM-13, MOLM-13 CRBN KO, Conc 0.00152416 uM, read-out: cell viability, dose-response replicate values): 116%
- viability at 0.00457247 µM (CRBN−/− MOLM-13 cells; Homo sapiens, MOLM-13, MOLM-13 CRBN KO, Conc 0.00457247 uM, read-out: cell viability, dose-response replicate values): 120%
- viability at 0.0137174 µM (CRBN−/− MOLM-13 cells; Homo sapiens, MOLM-13, MOLM-13 CRBN KO, Conc 0.0137174 uM, read-out: cell viability, dose-response replicate values): 115%
- viability at 0.0411523 µM (CRBN−/− MOLM-13 cells; Homo sapiens, MOLM-13, MOLM-13 CRBN KO, Conc 0.0411523 uM, read-out: cell viability, dose-response replicate values): 116%
- viability at 0.123457 µM (CRBN−/− MOLM-13 cells; Homo sapiens, MOLM-13, MOLM-13 CRBN KO, Conc 0.123457 uM, read-out: cell viability, dose-response replicate values): 113%
- viability at 0.37037 µM (CRBN−/− MOLM-13 cells; Homo sapiens, MOLM-13, MOLM-13 CRBN KO, Conc 0.37037 uM, read-out: cell viability, dose-response replicate values): 118%
- viability at 10 µM (CRBN−/− MOLM-13 cells; Homo sapiens, MOLM-13, MOLM-13 CRBN KO, Conc 10 uM, read-out: cell viability, dose-response replicate values): 80.2%
- cell viability, dose-response replicate values (CRBN−/− MOLM-13 cells; Conc 0.000508 uM): 112.4 and 118.871
- cell viability, dose-response replicate values (CRBN−/− MOLM-13 cells; Conc 0.00152416 uM): 110.951 and 120.77
- cell viability, dose-response replicate values (CRBN−/− MOLM-13 cells; Conc 0.00457247 uM): 113.675 and 126.396
- cell viability, dose-response replicate values (CRBN−/− MOLM-13 cells; Conc 0.0137174 uM): 112.684 and 118.779
- cell viability, dose-response replicate values (CRBN−/− MOLM-13 cells; Conc 0.0411523 uM): 113.146 and 122.731
- cell viability, dose-response replicate values (CRBN−/− MOLM-13 cells; Conc 0.123457 uM): 114.423 and 122.764
- cell viability, dose-response replicate values (CRBN−/− MOLM-13 cells; Conc 0.37037 uM): 115.466 and 130.548
- cell viability, dose-response replicate values (CRBN−/− MOLM-13 cells; Conc 1.11111 uM): 110.229 and 104.531 and 126.2
- cell viability, dose-response replicate values (CRBN−/− MOLM-13 cells; Conc 3.33333 uM): 104.594 and 98.0101 and 119.909
- cell viability, dose-response replicate values (CRBN−/− MOLM-13 cells; Conc 10 uM): 76.5849 and 88.9707
- Proteins with significantly reduced abundance (TMT proteomics) (MOLM-13 cells): significantly reduced the abundance of only CK1α out of >9000 proteins
- Log2FC vs. DMSO, CSNK1A1 (MOLM-13 cells; 1uM, 4h): -0.851
- Log2FC vs. DMSO, CTNNB1 (MOLM-13 cells; 1uM, 4h): 1.473
